# Reference: PubChem BioAssay AID1259407 (Chemical Carcinogenesis Research Information System (CCRIS), 2018)
# Calls of active or inactive are those of the source. How the calls were made is not given here.
# Tested on: CCRIS mutagenicity, Ames/micronucleus/aberration tests
# Test: CCRIS mutagenicity studies
# [1] = Test System: AMES SALMONELLA TYPHIMURIUM, Strain/Indicator: TA97, Metabolic Activation: NONE, Method: PREINCUBATION
# [2] = Test System: AMES SALMONELLA TYPHIMURIUM, Strain/Indicator: TA98, Metabolic Activation: NONE, Method: PREINCUBATION
# [3] = Test System: AMES SALMONELLA TYPHIMURIUM, Strain/Indicator: TA98, Metabolic Activation: RAT, LIVER, S-9, AROCLOR 1254, Method: PREINCUBATION
# [4] = Test System: AMES SALMONELLA TYPHIMURIUM, Strain/Indicator: TA100, Metabolic Activation: NONE, Method: PREINCUBATION
# [5] = Test System: AMES SALMONELLA TYPHIMURIUM, Strain/Indicator: TA100, Metabolic Activation: RAT, LIVER, S-9, AROCLOR 1254, Method: PREINCUBATION
# [6] = Test System: AMES SALMONELLA TYPHIMURIUM, Strain/Indicator: TA1535, Metabolic Activation: NONE, Method: PREINCUBATION
# [7] = Test System: AMES SALMONELLA TYPHIMURIUM, Strain/Indicator: TA1535, Metabolic Activation: RAT, LIVER, S-9, AROCLOR 1254, Method: PREINCUBATION
# [8] = Test System: AMES SALMONELLA TYPHIMURIUM, Strain/Indicator: TA1537, Metabolic Activation: NONE, Method: PREINCUBATION
# [9] = Test System: AMES SALMONELLA TYPHIMURIUM, Strain/Indicator: TA1537, Metabolic Activation: RAT, LIVER, S-9, AROCLOR 1254, Method: PREINCUBATION
structure (smiles),measurement,setting,value
O=c1[nH]c(=O)n([C@H]2C[C@H](O)[C@@H](CO)O2)cc1CCCCl,mutagenic call,[1],inactive; negative
same,mutagenic call,"Test System: AMES SALMONELLA TYPHIMURIUM, Strain/Indicator: TA97, Metabolic Activation: RAT, LIVER, S-9, AROCLOR 1254, Method: PREINCUBATION",inactive; negative
same,mutagenic call,[2],inactive; negative
same,mutagenic call,[3],inactive; negative
same,mutagenic call,[4],inactive; negative
same,mutagenic call,[5],inactive; negative
same,mutagenic call,"Test System: AMES SALMONELLA TYPHIMURIUM, Strain/Indicator: TA102, Metabolic Activation: NONE, Method: PREINCUBATION",inactive; negative
same,mutagenic call,"Test System: AMES SALMONELLA TYPHIMURIUM, Strain/Indicator: TA102, Metabolic Activation: RAT, LIVER, S-9, AROCLOR 1254, Method: PREINCUBATION",inactive; negative
same,mutagenic call,"Test System: AMES SALMONELLA TYPHIMURIUM, Strain/Indicator: TA104, Metabolic Activation: NONE, Method: PREINCUBATION",inactive; negative
same,mutagenic call,"Test System: AMES SALMONELLA TYPHIMURIUM, Strain/Indicator: TA104, Metabolic Activation: RAT, LIVER, S-9, AROCLOR 1254, Method: PREINCUBATION",inactive; negative
same,mutagenic call,[6],inactive; negative
same,mutagenic call,[7],inactive; negative
same,mutagenic call,[8],inactive; negative
same,mutagenic call,[9],inactive; negative
same,mutagenic call,"Test System: AMES SALMONELLA TYPHIMURIUM, Strain/Indicator: TA1538, Metabolic Activation: NONE, Method: PREINCUBATION",inactive; negative
same,mutagenic call,"Test System: AMES SALMONELLA TYPHIMURIUM, Strain/Indicator: TA1538, Metabolic Activation: RAT, LIVER, S-9, AROCLOR 1254, Method: PREINCUBATION",inactive; negative
same,mutagenic call,"Test System: CHINESE HAMSTER V-79, Strain/Indicator: V-79/8-AZAGUANINE, Metabolic Activation: NONE",inactive; negative
O[C@@H]1C=Cc2c(cc3ccc4cccc5ccc2c3c45)[C@H]1O,mutagenic call,"Test System: CHINESE HAMSTER V-79, Strain/Indicator: V-79/OUABAIN, Metabolic Activation: HAMSTER, EMBRYO, CELL-MEDIATED, Method: STANDARD PLATE",active; positive
O[C@@H]1C=Cc2c(ccc3cc4ccccc4cc23)[C@H]1O,mutagenic call,"Test System: CHINESE HAMSTER V-79, Strain/Indicator: V-79/OUABAIN, Metabolic Activation: CELL-MEDIATED, Method: STANDARD PLATE",active; positive
CN1CCC(=C2c3ccccc3C=Cc3ccccc32)CC1,mutagenic call,"Test System: AMES SALMONELLA TYPHIMURIUM, Strain/Indicator: TA98, Metabolic Activation: NONE, Method: STANDARD PLATE",inactive; negative
same,mutagenic call,"Test System: AMES SALMONELLA TYPHIMURIUM, Strain/Indicator: TA98, Metabolic Activation: RAT, LIVER, S-9, AROCLOR 1254, Method: STANDARD PLATE",inactive; negative
same,mutagenic call,"Test System: AMES SALMONELLA TYPHIMURIUM, Strain/Indicator: TA100, Metabolic Activation: NONE, Method: STANDARD PLATE",inactive; negative
same,mutagenic call,"Test System: AMES SALMONELLA TYPHIMURIUM, Strain/Indicator: TA100, Metabolic Activation: RAT, LIVER, S-9, AROCLOR 1254, Method: STANDARD PLATE",inactive; negative
same,mutagenic call,"Test System: AMES SALMONELLA TYPHIMURIUM, Strain/Indicator: TA1535, Metabolic Activation: NONE, Method: STANDARD PLATE",inactive; negative
same,mutagenic call,"Test System: AMES SALMONELLA TYPHIMURIUM, Strain/Indicator: TA1535, Metabolic Activation: RAT, LIVER, S-9, AROCLOR 1254, Method: STANDARD PLATE",inactive; negative
same,mutagenic call,"Test System: AMES SALMONELLA TYPHIMURIUM, Strain/Indicator: TA1537, Metabolic Activation: NONE, Method: STANDARD PLATE",inactive; negative
same,mutagenic call,"Test System: AMES SALMONELLA TYPHIMURIUM, Strain/Indicator: TA1537, Metabolic Activation: RAT, LIVER, S-9, AROCLOR 1254, Method: STANDARD PLATE",inactive; negative
same,mutagenic call,"Test System: AMES SALMONELLA TYPHIMURIUM, Strain/Indicator: TA1538, Metabolic Activation: NONE, Method: STANDARD PLATE",inactive; negative
same,mutagenic call,"Test System: AMES SALMONELLA TYPHIMURIUM, Strain/Indicator: TA1538, Metabolic Activation: RAT, LIVER, S-9, AROCLOR 1254, Method: STANDARD PLATE",inactive; negative
CCCCCC[C@@H](O)C/C=C\CCCCCCCC(=O)O,mutagenic call,"Test System: AMES SALMONELLA TYPHIMURIUM, Strain/Indicator: TA98, Metabolic Activation: HAMSTER, LIVER, S-9, AROCLOR 1254, Method: PREINCUBATION",inactive; negative
same,mutagenic call,[2],inactive; negative
same,mutagenic call,[3],inactive; negative
same,mutagenic call,"Test System: AMES SALMONELLA TYPHIMURIUM, Strain/Indicator: TA100, Metabolic Activation: HAMSTER, LIVER, S-9, AROCLOR 1254, Method: PREINCUBATION",inactive; negative
same,mutagenic call,[4],inactive; negative
same,mutagenic call,[5],inactive; negative
same,mutagenic call,"Test System: AMES SALMONELLA TYPHIMURIUM, Strain/Indicator: TA1535, Metabolic Activation: HAMSTER, LIVER, S-9, AROCLOR 1254, Method: PREINCUBATION",inactive; negative
same,mutagenic call,[6],inactive; negative
same,mutagenic call,[7],inactive; negative
same,mutagenic call,"Test System: AMES SALMONELLA TYPHIMURIUM, Strain/Indicator: TA1537, Metabolic Activation: HAMSTER, LIVER, S-9, AROCLOR 1254, Method: PREINCUBATION",inactive; negative
same,mutagenic call,[8],inactive; negative
same,mutagenic call,[9],inactive; negative
Cc1c2c(c(C)c3ccccc13)[C@H]1O[C@H]1c1ccccc1-2,mutagenic call,[2],active; positive
CCNc1cc(O)ccc1C,mutagenic call,"Test System: AMES SALMONELLA TYPHIMURIUM, Strain/Indicator: TA97, Metabolic Activation: HAMSTER, LIVER, S-9, AROCLOR 1254 (10%), Method: PREINCUBATION",inactive; negative
same,mutagenic call,[1],inactive; negative
same,mutagenic call,"Test System: AMES SALMONELLA TYPHIMURIUM, Strain/Indicator: TA97, Metabolic Activation: RAT, LIVER, S-9, AROCLOR 1254 (10%), Method: PREINCUBATION",inactive; negative
same,mutagenic call,"Test System: AMES SALMONELLA TYPHIMURIUM, Strain/Indicator: TA98, Metabolic Activation: HAMSTER, LIVER, S-9, AROCLOR 1254 (10%), Method: PREINCUBATION",active; positive
same,mutagenic call,[2],inactive; negative
same,mutagenic call,"Test System: AMES SALMONELLA TYPHIMURIUM, Strain/Indicator: TA98, Metabolic Activation: RAT, LIVER, S-9, AROCLOR 1254 (10%), Method: PREINCUBATION",active; positive
same,mutagenic call,"Test System: AMES SALMONELLA TYPHIMURIUM, Strain/Indicator: TA100, Metabolic Activation: HAMSTER, LIVER, S-9, AROCLOR 1254 (10%), Method: PREINCUBATION",active; positive
same,mutagenic call,[4],inactive; negative
same,mutagenic call,"Test System: AMES SALMONELLA TYPHIMURIUM, Strain/Indicator: TA100, Metabolic Activation: RAT, LIVER, S-9, AROCLOR 1254 (10%), Method: PREINCUBATION",inactive; negative
same,mutagenic call,"Test System: AMES SALMONELLA TYPHIMURIUM, Strain/Indicator: TA1535, Metabolic Activation: HAMSTER, LIVER, S-9, AROCLOR 1254 (10%), Method: PREINCUBATION",inactive; negative
same,mutagenic call,[6],inactive; negative
same,mutagenic call,"Test System: AMES SALMONELLA TYPHIMURIUM, Strain/Indicator: TA1535, Metabolic Activation: RAT, LIVER, S-9, AROCLOR 1254 (10%), Method: PREINCUBATION",inactive; negative
